What all share (assay type): physicochemical
Data set [1] in a line: Fe(III) complex stability, potentiometric titrations. The conditions noted are these: 25 °C, I = 0.1 M NaClO4. The source says:
To evaluate the thermodynamic stability of Ga(III) and Zr(IV) complexes of the investigated ligands, the binding properties and speciation of Fe(III) complexes have first been determined (all the details are given in the Supporting Information). There are several reasons for this protocol. First, (i) the electron configuration of Ga(III) (d^10) and Zr(IV) (d^0) hinders the attainment of spectral information for most of the complexes. Furthermore, (ii) both metal ions are highly acidic and they are readily hydrolyzed over almost the entire pH range. In addition, (iii) the high charge to size ratio of the Zr(IV) ion implies the formation of complexes with an exceptional thermodynamic stability (already at very low pH); as a consequence, the stability constants cannot be directly determined using standard potentiometric titrations. Thus, the thermodynamic stability constants of the Fe(III)-H3L1 and Fe(III)-H4L2 systems were first determined (using a combination of potentiometric and pH-dependent UV–vis titrations), followed by Fe(III)–Ga(III) and Fe(III)–Zr(IV) metal–metal competition experiments. […]
Accordingly, the following speciation could be drawn from the spectra collected: the complexes formation starts at pH<1 involving two hydroxamate groups coordinated to Fe(III) ion, while the three hydroxamate complexes are observed over pH range 3-9. Above pH 9, the absorbance begins to […]

Data set [2] can be described thus: pZr calculation (ligand sequestering ability). The conditions noted are these: for pZr: pZr = −log[Zr(IV)free], pH 7.4, cL = 10 μM, cZr(IV) = 1 μM. The source says:
(§1) Despite a large variety of PET chelators synthesized and tested in order to provide strong coordination of Ga(III) and Zr(IV) in vivo, until now it is has been hard to avoid the release of these metal ions in the body. Here we report two new Ga(III) and Zr(IV) hydroxamate chelators, designed to achieve an efficient sequestering of these metal ions but also to understand how the cyclization and the introduction of an additional hydroxamate group influences the stability of Zr(IV) complexes. Therefore, it is important to evaluate and compare the Ga(III)- and Zr(IV)-sequestering abilities of H3L1 and H4L2 with those of other chelators. However, the direct comparison of the stability constants of metal complexes is not straightforward, and other tools taking into account all the physicochemical properties of the ligands, i.e. their denticity, coordination modes, and acid–base properties, should be used.[52] In order to reliably compare the chelating abilities of H3L1 and H4L2 toward Ga(III) and Zr(IV) ions, the pM values were calculated. pFe was originally introduced by Raymond for the comparison of iron-siderophore systems;[53] pGa = −log[Ga(III)free] and pZr = −log[Zr(IV)free] were calculated at pH 7.4 with cL = 10 μM and cGa(III)/Zr(IV) = 1 μM (Table 2).

Data set [3] can be described thus: pGa calculation (ligand sequestering ability). Conditions: pGa = −log[Ga(III)free], pH 7.4, cL = 10 μM, cGa(III) = 1 μM.
From the text: as §1

Consider 2 compounds from PMC8424644, “Thermodynamic Stability and Speciation of Ga(III) and Zr(IV) Complexes with High-Denticity Hydroxamate Chelators” (Inorganic Chemistry, 2021).

Molecules are shown by their SMILES. Marks after values point to notes of the source that are not given here.

For the compound `N[C@H]1CCCCNC(=O)CCCN(O)C(=O)CCCNC(=O)CCCN(O)C(=O)CCCNC(=O)CCCN(O)C(=O)CCCNC(=O)CCCN(O)C(=O)CCCNC1=O` [H4L2, (S)-43-Amino-6,16,26,36-tetrahydroxy-1,6,11,16,21,26,31,36,41-nonaazacycloheptatetracontane-2,7,12,17,22,27,32,37,42-nonaone], the “log β [FeHL]” value in data set [1] was 36.82(6) ^d. Besides, in data set [2], the “pZr higher than the values for Zr(IV)-DFOB and Zr(IV)-H3L1” value is on record as > 4 units; the pZr is reported as 37.0. The pGa in data set [3] is listed as 22.3.

`O=C1CCCN(O)C(=O)CCCNC(=O)CCCN(O)C(=O)CCCNC(=O)CCCN(O)C(=O)CCCN1` [H3L1, 1,11,21-Trihydroxy-1,6,11,16,21,26-hexaazacyclotriacontane-2,7,12,17,22,27-hexaone]: the “log β [FeL]” value in data set [1] is listed as 28.7(1) ^d. The pZr in data set [2] is on record as 32.4. Moreover, the pGa in data set [3] is recorded as 22.5.
